Data from patent US7393864B2, “Use of ClC3 chloride channel blockers to modulate vascular tone” (University of Iowa Research Foundation, priority 1999, dated 2008).

Assays:
[1] = system: Clcn3^−/− mice; assay: Recovery from sedatives in adult Clcn3-/- mice
[2] = system: isolated rings of rat aorta; assay: Contractile response to ED80 norepinephrine or KCl in isolated rings of rat aorta (earlier studies, Lamb and Barna 1998); settings: for Vasodilator effect in the presence of NE or KCl: denuded blood vessel segments; for Effect on contractile response to ED80 concentrations of NE or KCl: rings with intact endothelium
From the text: The above experiments were reported in Lamb and Barna, Am. J. Physiol., 275 H151 (1998) and Lamb and Barna, Am. J. Physiol., 275, 161 (1998), and are incorporated herein by reference.

[3] = system: swelling-induced Cl ion current in cultured human aortic and coronary vascular smooth muscle cells; assay: Whole-cell voltage-clamp of swelling-induced chloride current; type: cell-based; settings: for Effect on swelling-induced Cl current: hypotonic conditions, whole-cell patch clamp, β-estradiol 10^−7 M, H-7 10^−5 M
Experimental: Electrophysiology. Chloride ion currents were measured from cultured human aortic and coronary vascular smooth muscle cells at room temperature (22-24° C. using standard whole-cell voltage-clamp techniques (Hamill et al., 1981; Lamb et al., 1994) and an Axopatch 200B patch-clamp amplifier driven by pClamp software (Axon Instruments). The hypotonic (250 mOsm/kg by freezing point depression) bath solution contained (mM): NaCl 125, MgCl2 2.5, CaCl2 2.5, HEPES 10, pH 7.2. Isotonic bath solution had the same ionic composition as the hypotonic solution except that the osmolality was adjusted to 300 mOsm/kg by adding mannitol. Pipette solution contained (mM): N′-methyl-D-glucamine chloride (NMDG—Cl) 135, EGTA 2, Mg-ATP 5, HEPES 10, pH 7.2 with osmolality adjusted to 300 mOsm/kg by adding mannitol. Thus, the chloride equilibrium potential remained 0 mV under both isotonic and hypotonic conditions. All components of the buffer solutions were obtained from Sigma. Pipette resistances were 3-5 MOhms.

[4] = system: Clcn3 knockout, heterozygous and wild type mice; assay: Pentylenetetrazole-induced seizure susceptibility; type: in vivo, mouse; settings: PTZ 70 mg/kg i.p.
Experimental: The proconvulsant, pentylenetetrazole (PTZ), was dissolved at 7 mg/ml in sterile 0.9% NaCl and administered to drug-naive mice at 70 mg/kg i.p. in a quiet daytime laboratory setting. Parameters measured during the 15-minute observation period included time to onset of generalized tonic-clonic or tonic seizures, and duration of the first generalized seizure. Lethality was assessed 60 minutes post-injection (Loscher and Nolting, 1991).

[5] = system: isolated aortic rings from male wild-type, heterozygote and Clcn3 knockout mice; assay: Dose-response to norepinephrine in isolated mouse aortic rings; settings: L-NNA 10^−4 M, wild-type tissues, FIG. 17
Experimental: Animals were sacrificed by exposure to 100% CO2 for five minutes followed by cervical dislocation. Thoracic aortae were removed, cleaned of adherent connective tissue and cut into 4 rings. […] Contractile responses were recorded using a MacLab 8E and stored on a Power MacIntosh 6400/200 computer. Passive stretch was set at 5.0 mN and the rings were allowed to equilibrate in Physiologic Salt Solution (PSS) at 37° C. for 60 minutes prior to the start of experimentation.

[6] = system: rat thoracic aorta rings (vascular smooth muscle), intact or denuded endothelium; assay: Norepinephrine-induced contraction of isolated aortic rings, isometric tension; settings: 10 μM tamoxifen, FIG. 2
Experimental: Adult male Sprague-Dawley rats (250-300 g) were obtained from Harlan Sprague Dawley. The animals were killed by exposure to 100% CO2 for 5 minutes, followed by cervical dislocation. Thoracic aortas were removed, cleaned of adherent connective tissue, and cut into 6 mm rings. The endothelium was left intact, and the rings were mounted in individual 10 ml isolated organ chambers using standard methods for recording of isometric tension. Contractile responses were recorded with an eight-channel MacLab8E and stored on a Power Macintosh 7200 computer. Passive stretch was set at 2.5 g, and the rings were allowed to equilibrate in physiological salt solution (PSS) at 37° C. for 120 minutes before the start of experimentation. PSS was aerated with a mixture of 95% 2-5% CO2; the composition was as follows (in mM): 130 NaCl, 4.7 KCl, 1.18 KH2PO4, 1.17 MgSO47H2O, 14.9 NaHCO3, 1.6 CaCl2H2O, 5.5 dextrose, and 0.03 CaNa2-EDTA 0.03 (pH 7.30).
Intact and denuded aortic blood vessel segments were prepared, mounted as described in Example 1. • 2. […] Aliquots of NE (Sigma Chemical, St. Louis, Mo.), which had been dissolved directly into aqueous solution was applied to the vessel segments at concentrations between 10^−10 and 10^−5 M, and the contractile response measured as described above.

[7] = system: rat thoracic aorta rings (vascular smooth muscle), intact or denuded endothelium; assay: KCl-induced contraction of isolated aortic rings, isometric tension; settings: 10 μM tamoxifen, FIG. 3
Experimental: Adult male Sprague-Dawley rats (250-300 g) were obtained from Harlan Sprague Dawley. The animals were killed by exposure to 100% CO2 for 5 minutes, followed by cervical dislocation. Thoracic aortas were removed, cleaned of adherent connective tissue, and cut into 6 mm rings. The endothelium was left intact, and the rings were mounted in individual 10 ml isolated organ chambers using standard methods for recording of isometric tension. Contractile responses were recorded with an eight-channel MacLab8E and stored on a Power Macintosh 7200 computer. Passive stretch was set at 2.5 g, and the rings were allowed to equilibrate in physiological salt solution (PSS) at 37° C. for 120 minutes before the start of experimentation. PSS was aerated with a mixture of […]; the composition was as follows (in mM): 130 NaCl, 4.7 KCl, 1.18 KH2PO4, 1.17 MgSO47H2O, 14.9 NaHCO3, 1.6 CaCl2H2O, 5.5 dextrose, and 0.03 CaNa2-EDTA 0.03 (pH 7.30).
Data were expressed as a percentage of the maximal response of each ring to the agonist.
• 1. Intact and denuded aortic blood vessel segments were prepared and mounted as described in Example 1. • 2. […] Cl (Sigma Chemical, St. Louis, Mo.), was applied to the vessels at 2, 4, 8, 12, 16, 20, 28, 40, 60, 80, and 100 mM concentrations, and the contractile response measured as described above.

[8] = system: isolated rings of rat aorta; settings: vasculature with intact endothelium; Lamb and Barna 1998; cited from earlier work
[9] = system: ion channel responsible for swelling-induced chloride conductance (CLC3); settings: Duan et al. 1997; Nilius et al. 1994; cited from earlier work
[10] = system: erectile function; settings: cited from earlier work

## Cc1ncc2n1-c1ccc(Cl)cc1C(c1ccccc1F)=NC2 [midazolam]
[1]
  Recovery time from sedation: prolonged recovery time

## O=S(=O)(O)c1cc(N=C=S)ccc1C=Cc1ccc(N=C=S)cc1S(=O)(=O)O [DIDS, 4,4′-diisothiocyanato stilbene-2,2′disulphonic acid]
[2]
  Vasodilator effect in the presence of NE or KCl: persisted
  Effect on contractile response to ED80 concentrations of NE or KCl: significantly inhibited

## C[C@]12CC[C@@H]3c4ccc(O)cc4CC[C@H]3[C@@H]1CC[C@@H]2O [β-estradiol]
[3]; hypotonic plus estradiol 10^−7 M, +120 mV, n=5, hypotonic only 1451±495 pA
  Swelling-induced Cl current (ICl): 3513±856 pA

## CC1CNCCN1S(=O)(=O)c1cccc2cnccc12 (stereo not drawn) [H-7]
[3]
  Effect on swelling-induced Cl current: increased

## C1CCc2nnnn2CC1 [PTZ, pentylenetetrazole]
[4]; Clcn3^+/+ mice (7/8)
  Mice with generalized seizures: 87.5%
[4]; Clcn3^+/+ mice
  Onset of generalized seizures: 280 ± 112 s
[4]; Clcn3^+/− mice (13/15), 4-5 weeks old
  Mice with generalized seizures: 86.7%
[4]; Clcn3^+/− mice
  Onset of generalized seizures: 215 ± 56 s
[4]; Clcn3^−/− mice (1/8)
  Mice with seizure activity: 12.5%
[4]; Clcn3^−/− mice
  Onset of seizure activity: 58 s

## NC(=NCCC[C@H](N)C(=O)O)N[N+](=O)[O-] [L-NNA]
[5]
  Responsiveness to norepinephrine when endothelial nitric oxide synthase is inhibited: increase in responsiveness

## O=C(O)c1cccnc1Nc1cccc(C(F)(F)F)c1 [niflumic acid]
[2]
  Vasodilator effect in the presence of NE or KCl: persisted
  Effect on contractile response to ED80 concentrations of NE or KCl: significantly inhibited

## CC/C(=C(\c1ccccc1)c1ccc(OCCN(C)C)cc1)c1ccccc1 [tamoxifen, 1-p-β-dimethylaminoethoxyphenyl-trans-1,2-diphenylbut-1-ene]
[6]
  Effect on NE sensitivity/contractility of endothelially compromised (denuded) vessel segments: shifts the dose-response curve of NE back to the right
[7]
  Effect on KCl sensitivity/contractility of denuded vessel segments: corrects the increase in vascular smooth muscle sensitivity to KCl
[3]; hypotonic + H7 (10^−5 M) + tamoxifen, n=3, hypotonic 1204±313 pA
  Swelling-induced chloride current: 878±493 pA
[3]
  Effect on swelling-induced Cl current: inhibited
[8]
  Effect on norepinephrine-induced contraction of normal vasculature: no effect
[9]
  Block of ion channel responsible for swelling-induced chloride conductance: block

## CN1CCc2cccc3c2[C@H]1Cc1ccc(O)c(O)c1-3 [apomorphine]
[10]; men whose dysfunction had psychological origins
  Men returned to sexual potency: about 70%
[10]; sublingual
  Time to response following administration: 20 to 40 min

## CCCC(C)C1(CC)C(=O)NC(=O)NC1=O (stereo not drawn) [pentobarbital]
[1]
  Recovery time from sedation: prolonged recovery time
[1]; even at reduced doses
  Incidence of death: increased incidence of death
